{"source": "patent US10849854B2", "about": "“Process for preparing a composition comprising a high concentration of one or more avermectins” (GALDERMA SA, priority 2015, dated 2020)", "experiment": "Solubility of ivermectin in propylene glycol/oleyl alcohol (1/1) solubilizing medium", "format": "physicochemical", "settings": "mixed propylene glycol/oleyl alcohol (1/1) solubilizing medium", "description": "Although these prior attempts have allowed formulating ivermectin in emulsions which remain stable despite temperature and/or pH variations, it has been observed that the amount of ivermectin that could be introduced into these emulsions was limited. Specifically, at most 33% by weight of ivermectin can be fully dissolved in a mixed propylene glycol/oleyl alcohol (1/1) solubilizing medium. Beyond this concentration, ivermectin tends to crystallize in the active phase before the emulsion is prepared and/or in the resulting emulsion, optionally when subjected to freeze/thaw cycles. Increasing the amount of glycols in the emulsion would raise other issues, since the emulsion stability would be detrimentally affected and the emulsion would become too sticky to be commercially acceptable. Therefore, from a practical point of view, it has not been possible so far to formulate emulsions comprising 2% or more by weight of ivermectin, which remains fully dissolved ivermectin over the time."}
{"substance": "ivermectin", "values": [{"measurement": "Amount of ivermectin that can be fully dissolved", "value": "at most 33 % by weight"}]}
